Usually IC50 stands for the midpoint of a concentration-inhibition curve. What is called inhibition is the share of the control response that was lost under treatment.

Here are results for 33 molecules from patent US20120004228A1, “Bis Aromatic Compounds for Use as LTC4 Synthase Inhibitors” (BIOLIPOX AB, priority 2009, published 2012).

One assay deals with T1, Recombinant human LTC4 synthase (Homo sapiens, UniProt Q16873).
T1 construct: made in house; host or cells: Pichia pastoris ('Piccia pastoralis' [sic])
T1 sequence (Q16873 1-150): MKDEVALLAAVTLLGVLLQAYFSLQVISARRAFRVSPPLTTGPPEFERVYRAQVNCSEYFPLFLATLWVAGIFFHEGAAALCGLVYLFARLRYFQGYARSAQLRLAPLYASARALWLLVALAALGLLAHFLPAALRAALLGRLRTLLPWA
Description: In vitro LTC4 synthase assay (LTA4 to LTC4, HTRF detection).
Settings: not given
It counts as biochemical. Here is the method:
In the assay, LTC4 synthase catalyses the reaction where the substrate LTA4 is converted to LTC4. Recombinant human LTC4 synthase is expressed in Piccia pastoralis and the purified enzyme is dissolved in 25 mM tris-buffer pH 7.8 supplemented with 0.1 mM glutathione (GSH) and stored at −80° C. The assay is performed in phosphate buffered saline (PBS) pH 7.4 and 5 mM GSH in 384-well plates.
The following is added chronologically to each well:
1. 48 μL LTC4 synthase in PBS with 5 mM GSH. The total protein concentration in this solution is 0.5 μg/mL. 2. 1 μL inhibitor in DMSO (final concentration 10 μM). 3. Incubation of the plate at room temperature for 10 min. 4. 1 μL LTA4 (final concentration 2.5 μM). 5. Incubation of the plate at room temperature for 5 min. 6. 10 μL of the incubation mixture is analysed using homogenous time resolved fluorescent (HTRF) detection.
In general terms: In TR-FRET formats the signal depends on donor and acceptor labels being close together.
For `CN(c1ccc(Cl)cc1)c1ccc(C(=NO)c2cc(Oc3ccccc3)cc(C(=O)O)c2)cc1` (mixture of isomers) [Example 17, 3-({4-[(4-Chlorophenyl)(methyl)amino]phenyl}(hydroxyimino)methyl)-5-phenoxy-benzoic acid], the IC50 came to 834 nM.

Consider `CON=C(c1ccc(N(C)c2ccc(Cl)cc2)cc1)c1cc(Oc2ccccc2)cc(C(=O)O)c1` (mixture of isomers) [Example 18, 3-({4-[(4-Chlorophenyl)(methyl)amino]phenyl}(methoxyimino)methyl)-5-phenoxybenzoic acid], for which the IC50 was 745 nM.

In the case of `CN(c1ccc(Cl)cc1)c1ccc(C(=O)c2cc(C(=O)O)cc(C(=O)Nc3ccccc3Cl)c2)nc1` [2:2, 3-{5-[(4-Chlorophenyl)(methyl)amino]picolinoyl}-5-(2-chlorophenyl-carbamoyl)-benzoic acid], the IC50 was 538 nM. Take `CN(c1ccc(Cl)cc1)c1ccc(C(=O)c2cc(C(=O)O)cc(C(=O)Nc3ccc(Cl)cc3)c2)nc1` [2:3, 3-{5-[(4-Chlorophenyl)(methyl)amino]picolinoyl}-5-(4-chlorophenyl-carbamoyl)-benzoic acid]: the IC50 is 343 nM. As for `CN(c1ccc(Cl)cc1)c1ccc(C(=O)c2cc(C(=O)O)cc(C(=O)Nc3cccc(Cl)c3)c2)nc1` [2:4, 3-{5-[(4-Chlorophenyl)(methyl)amino]picolinoyl}-5-(3-chlorophenyl-carbamoyl)-benzoic acid], the IC50 came out at 390 nM. As for `CCCCCCNC(=O)c1cc(C(=O)O)cc(C(=O)c2ccc(N(C)c3ccc(Cl)cc3)cn2)c1` [2:5, 3-{5-[(4-Chlorophenyl)(methyl)amino]picolinoyl}-5-(hexylcarbamoyl)benzoic acid], the IC50 worked out at 102 nM. Still for that read-out and setting: the result for `COc1ccc(NC(=O)c2cc(C(=O)O)cc(C(=O)c3ccc(N(C)c4ccc(Cl)cc4)cn3)c2)cc1` [2:6, 3-{5-[(4-Chlorophenyl)(methyl)amino]picolinoyl}-5-(4-methoxyphenyl-carbamoyl)benzoic acid] reads 744 nM. Take `CN(c1ccc(Cl)cc1)c1ccc(C(=O)c2cc(NC(=O)c3ccccc3)cc(C(=O)O)c2)nc1` [2:8, 3-Benzamido-5-{5-[(4-chlorophenyl)(methyl)amino]picolinoyl}benzoic acid]: the IC50 came out at 214 nM. In the case of `CN(c1ccc(Cl)cc1)c1ccc(C(=O)c2cc(NC(=O)c3cccc(Cl)c3)cc(C(=O)O)c2)nc1` [2:9, 3-(3-Chlorobenzamido)-5-{5-[(4-chlorophenyl)(methyl)amino]picolinoyl}benzoic acid], the IC50 was 276 nM.

For the molecule `COc1cccc(C(=O)Nc2cc(C(=O)O)cc(C(=O)c3ccc(N(C)c4ccc(Cl)cc4)cn3)c2)c1` [2:10, 3-{5-[(4-Chlorophenyl)(methyl)amino]picolinoyl}-5-(3-methoxybenzamido)-benzoic acid], the concentration for half-maximal inhibition (IC50) was determined as 412 nM. Same read-out and setting: to `CN(c1ccc(Cl)cc1)c1ccc(C(=O)c2cc(C(=O)O)cc(C(=O)Nc3ccc4c(c3)OC(F)(F)O4)c2)cc1` [2:12, 3-{4-[(4-Chlorophenyl)(methyl)amino]benzoyl}-5-[3,4-(difluoromethylene-dioxy)phenylcarbamoyl]benzoic acid] belongs 424 nM. Turning to `CN(c1ccc(Cl)cc1)c1ccc(C(=O)c2cc(C(=O)O)cc(C(=O)Nc3ccccc3OC(F)F)c2)cc1` [2:13, 3-{4-[(4-Chlorophenyl)(methyl)amino]benzoyl}-5-[2-(difluoromethoxy)phenyl-carbamoyl]benzoic acid], the IC50 amounted to 706 nM. On the same count and under the same terms, the result for `COc1ccc(NC(=O)c2cc(C(=O)O)cc(C(=O)c3ccc(N(C)c4ccc(Cl)cc4)cc3)c2)cc1OC` [2:14, 3-{4-[(4-Chlorophenyl)(methyl)amino]benzoyl}-5-(3,4-dimethoxyphenyl-carbamoyl)benzoic acid] reads 925 nM; that for `CN(c1ccc(Cl)cc1)c1ccc(C(=O)c2cc(C(=O)O)cc(C(=O)Nc3cc(F)ccc3F)c2)cc1` [2:15, 3-{4-[(4-Chlorophenyl)(methyl)amino]benzoyl}-5-(2,5-difluorophenyl-carbamoyl)benzoic acid], 682 nM; that for `O=C(O)c1cc(Nc2ccc(Cl)cc2)ccc1C(=O)c1ccc(Nc2ccc(C(=O)C3CC3)cc2)cc1` [6:2, 5-(4-Chlorophenylamino)-2-[4-(4-cyclopropylcarbonylphenylamino)-benzoyl]benzoic acid], 390 nM. Turning to `CN(c1ccc(Cl)cc1)c1ccc(C(=O)c2ccc(Nc3ccc(Cl)cc3)cc2)c(C(=O)O)c1` [6:3, 2-[4-(4-Chlorophenylamino)benzoyl]-5-[(4-chlorophenyl)(methyl)amino]-benzoic acid], the IC50 came out at 224 nM. Turning to `CN(c1ccc(Cl)cc1)c1ccc(C(=O)c2cc(Oc3ccc(F)c(F)c3)cc(C(=O)O)c2)nc1` [8:2, 3-{5-[(4-Chlorophenyl)(methyl)amino]picolinoyl}-5-(3,4-difluorophenoxy)-benzoic acid], the IC50 was determined as 41 nM. The same measure, in the same setting: to `COc1cccc(Oc2cc(C(=O)O)cc(C(=O)c3ccc(N(C)c4ccc(Cl)cc4)cn3)c2)c1` [8:3, 3-{5-[(4-Chlorophenyl)(methyl)amino]picolinoyl}-5-(3-methoxyphenoxy)benzoic acid] belongs 188 nM. Turning to `COc1ccccc1Oc1cc(C(=O)O)cc(C(=O)c2ccc(N(C)c3ccc(Cl)cc3)cn2)c1` [8:4, 3-{5-[(4-Chlorophenyl)(methyl)amino]picolinoyl}-5-(2-methoxyphenoxy)benzoic acid], the IC50 turned out to be 525 nM.

Consider `CN(c1ccc(Cl)cc1)c1ccc(C(=O)c2cc(Oc3ccc(Cl)cc3)cc(C(=O)O)c2)nc1` [8:5, 3-(4-Chlorophenoxy)-5-{5-[(4-chlorophenyl)(methyl)amino]picolinoyl}benzoic acid], for which the IC50 stood at 76 nM.

With `Cc1ccc(Oc2cc(C(=O)O)cc(C(=O)c3ccc(N(C)c4ccc(Cl)cc4)cn3)c2)cc1` [8:6, 3-{5-[(4-Chlorophenyl)(methyl)amino]picolinoyl}-5-(p-tolyloxy)benzoic acid], the IC50 came to 120 nM. Still for that read-out and setting: to `CN(c1ccc(Cl)cc1)c1ccc(C(=O)c2cc(Oc3ccc(C#N)cc3)cc(C(=O)O)c2)nc1` [8:7, 3-{5-[(4-Chlorophenyl)(methyl)amino]picolinoyl}-5-(4-cyanophenoxy)benzoic acid] belongs 274 nM. With `CN(c1ccc(Cl)cc1)c1ccc(C(=O)c2cc(Oc3ccccc3Cl)cc(C(=O)O)c2)nc1` [8:8, 3-(2-Chlorophenoxy)-{5-[(4-chlorophenyl)(methyl)amino]picolinoyl}benzoic acid], the IC50 was 77 nM. For the molecule `CN(c1ccc(Cl)cc1)c1ccc(C(=O)c2cc(Oc3cccc(OC(F)(F)F)c3)cc(C(=O)O)c2)cc1` [8:10, 3-{4-[(4-Chlorophenyl)(methyl)amino]benzoyl}-5-[3-(trifluoromethoxy)phenoxy]-benzoic acid], the concentration for half-maximal inhibition (IC50) is 171 nM. As to `CN(c1ccc(Cl)cc1)c1ccc(C(=O)c2cc(Oc3ccccc3)cc(C(=O)O)c2)cc1` [8:11, 3-{4-[(4-Chlorophenyl)(methyl)amino]benzoyl}-5-phenoxybenzoic acid], the IC50 is 61 nM. For the molecule `CN(c1ccc(Cl)cc1)c1ccc(C(=O)c2cc(Oc3ccc4c(c3)OCO4)cc(C(=O)O)c2)cc1` [8:12, 5-{4-[(4-Chlorophenyl)(methyl)amino]benzoyl}-3-(3,4-methylenedioxyphenoxy)-benzoic acid], the IC50 worked out at 109 nM. As for `CN(c1ccc(Cl)cc1)c1ccc(C(=O)c2cc(Oc3cccc(F)c3)cc(C(=O)O)c2)cc1` [8:13, 3-{4-[(4-Chlorophenyl)(methyl)amino]benzoyl}-5-(3-fluorophenoxy)benzoic acid], the IC50 is 59 nM. On to `COc1cccc(Oc2cc(C(=O)O)cc(C(=O)c3ccc(N(C)c4ccc(Cl)cc4)cc3)c2)c1` [8:14, 3-{4-[(4-Chlorophenyl)(methyl)amino]benzoyl}-5-(3-methoxyphenoxy)benzoic acid], for which the IC50 was 143 nM. Turning to `CCN(CC)c1ccc(Oc2cc(C(=O)O)cc(C(=O)c3ccc(N(C)c4ccc(Cl)cc4)cc3)c2)cc1` [8:15, 3-{4-[(4-Chlorophenyl)(methyl)amino]benzoyl}-5-(4-(diethylamino)phenoxy)-benzoic acid], the concentration for half-maximal inhibition (IC50) amounted to 183 nM. As for `CN(c1ccc(Cl)cc1)c1ccc(C(=O)c2cc(Oc3ccc(C(C)(C)C)cc3)cc(C(=O)O)c2)cc1` [8:16, 3-(4-tert-Butylphenoxy)-5-{4-[(4-chlorophenyl)(methyl)amino]benzoyl}benzoic acid], the IC50 came to 159 nM. For `Cc1ccccc1Oc1cc(C(=O)O)cc(C(=O)c2ccc(N(C)c3ccc(Cl)cc3)cc2)c1` [8:17, 3-{4-[(4-Chlorophenyl)(methyl)amino]benzoyl}-5-(o-tolyloxy)benzoic acid], the IC50 turned out to be 198 nM. For the molecule `CN(c1ccc(Cl)cc1)c1ccc(C(=O)c2cc(Oc3ccccc3Cl)cc(C(=O)O)c2)cc1` [8:19, 3-(2-Chlorophenoxy)-5-{4-[(4-chlorophenyl)(methyl)amino]benzoyl}benzoic acid], the IC50 amounted to 80 nM. With `CN(c1ccc(Cl)cc1)c1ccc(C(=O)c2cc(Oc3cccc(Cl)c3)cc(C(=O)O)c2)cc1` [8:20, 3-(3-Chlorophenoxy)-5-{4-[(4-chlorophenyl)(methyl)amino]benzoyl}benzoic acid], the IC50 amounted to 87 nM.

Still in this assay, the particulars now being: 5 min; total concentration of title compound in the assay 10 μM.
Take `O=C(O)c1cc(Nc2ccc(Cl)cc2)ccc1C(=O)c1ccc(Nc2ccc(C(=O)C3CC3)cc2)cc1` [6:2, 5-(4-Chlorophenylamino)-2-[4-(4-cyclopropylcarbonylphenylamino)-benzoyl]benzoic acid]: the inhibition at 10 µM amounted to 100%. Same read-out and setting: the result for `CN(c1ccc(Cl)cc1)c1ccc(C(=O)c2ccc(Nc3ccc(Cl)cc3)cc2)c(C(=O)O)c1` [6:3, 2-[4-(4-Chlorophenylamino)benzoyl]-5-[(4-chlorophenyl)(methyl)amino]-benzoic acid] reads 99%.
